Source: US5827896A, “Pinitol and derivatives thereof for the treatment of metabolic disorders” (priority 1996, dated 1998)
Where “and” joins values, the source holds several entries; their conditions need not be identical. Identical values can stand only once.

Key:
plasma insulin [1] = test: plasma insulin during oral glucose tolerance test (RIA) in non-insulin-dependent Type II diabetics (Example 3); format: in vivo, human
Method: (§1) Five non-insulin-dependent diabetic subjects were studied on two occasions one week apart. For three days the subjects received pinitol 4.15 mg/kg/day orally in a drink once daily for 3 days. The preparation also contained 0.85 mg/kg/day D-chiro-inositol in other forms. The total inositol content by weight (including pinitol) was 22.5%. On the fourth day they took no morning dose of oral hypoglycemic agents and reported to the Clinical Research Center. Baseline blood samples were taken at -90 and -60 minutes, and at -60 minutes a dose of pinitol identical to that taken during the previous 3 days was given orally. The material contained less than 5 calories. At zero time 75 g glucose was given to begin a glucose tolerance test and blood samples were taken half-hourly for 3 hours. In random order the subjects received either myo-inositol (5 mg/kg/day) or soy pinitol (total inositol content 5 mg/kg/day). […] Plasma inositol levels were measured by gas chromatography/mass spectrometry and insulin levels were measured by RIA.

plasma insulin [2] = conditions: stated as basis for use as control; cited from earlier work
plasma glucose [3] = conditions: stated as basis for use as control; cited from earlier work
clinical = conditions: in vivo
Method: as §1

plasma glucose [4] = test: plasma glucose during oral glucose tolerance test in non-insulin-dependent Type II diabetics (Example 3); format: in vivo, human
Source text: The material contained less than 5 calories.

plasma free fatty acids = test: fasting plasma free fatty acids in NIDDM patients, placebo-controlled crossover (Example 5); format: in vivo, human; conditions: 5 days
Method: (§2) 10 non-insulin-dependent diabetes patients maintained a pinitol and D-chiro-inositol-deficient diet (no legumes, or citrus fruits) throughout the study. […] The following table summarizes the characteristics of the patients.
(§3) Each subject received both placebo and soy-derived pinitol in separate tests. After an initial 5-day washout period the subjects received 5 days of treatment with either pinitol 5 mg/kg BID (total dose 10 mg/kg/day) or placebo without inositols. The material was given orally in 60 ml. calorie-free KOOL-AID drink.
(§4) Twelve hours after the last dose, two fasting plasma samples were drawn from each subject 15 minutes apart. Plasma free fatty acid levels were measured. A dose of pinitol was then given and a 3-hour glucose tolerance test was performed.
(§5) After a second 5-day washout period and another 5 days of pinitol or placebo feeding the testing was repeated. The order of treatment (pinitol or lacebo) was randomized and study investigatyors and those conducting the analyses were blinded to the order of treatment given.

[5] = fasting plasma pinitol and chiro-inositol levels in NIDDM patients (Example 5); format: in vivo, human
Method: as §2, §3, §4, §5

[6] = acid hydrolysis of pinitol to D-chiro-inositol in 6N HCl; format: physicochemical; conditions: 24 hr at 110° in 6N HCl
Method: The highly standardized components of Purina Rodent Chow 5001 were analyzed by gas chromatography-mass spectrometry after hydrolysis in 6N HCI at 110° for 24 hr. to convert the pinitol to D-chiro-inositol and the results are presented in Table I below:
In contrast to other ether linkages it is not necessary to use concentrated hydrogen iodide to convert pinitol to D-chiro-inositol as detailed in U.S. Pat. No. 5,091,596.

[7] = before glucose, during pinitol treatment
[8] = compared to the pinitol-deficient diet

Row | plasma D-chiro-inositol reached (clinical; human, 240 min) [µM] | Cmax at 3 h (clinical; human, po, 4.15 mg/kg/day) [nM] | time of peak plasma pinitol after oral administration (clinical; po) | plasma chiro-inositol on pinitol feeding [5, 8] | plasma pinitol on pinitol feeding [5, 8] | concentration at 12 h ([5]; human, plasma, po, pinitol 5 mg/kg BID orally, 5 days, twelve hours after last dose, Mean ± SD, placebo 0.014 ± 0.012, P <0.0001) [nM] | Compound | Insulin Area, myo-Inositol (plasma insulin [1]; 75 g glucose tolerance test, 3 hours, myo-inositol 5 mg/kg/day (control), one value per subject (1-5)) | effect on plasma insulin (plasma insulin [2]) | effect on plasma glucose (plasma glucose [3]) | Insulin Area, Pinitol (plasma insulin [1]; 75 g glucose tolerance test, 3 hours, soy pinitol (total inositol 5 mg/kg/day orally), one value per subject (1-5)) | baseline insulin levels (plasma insulin [1]; [7]) | reduction of insulin area during the glucose tolerance test (plasma insulin [1]; pinitol vs myo-inositol, five subjects, p=0.046) [%] | Insulin Area, Percent Change (Reduction) (plasma insulin [1]; pinitol vs myo-inositol, one value per subject (1-5)) | baseline glucose levels (plasma glucose [4]; [7]) | reduction in plasma glucose area (mg/dl×minutes) during the glucose tolerance test (plasma glucose [4]; pinitol vs myo-inositol, five subjects, p=0.11) [%] | Fasting plasma free fatty acids (plasma free fatty acids; pinitol 5 mg/kg BID (10 mg/kg/day) orally, twelve hours after last dose, Mean ± SD, placebo 648 ± 244, P 0.05) [µM] | reduction in mean fasting plasma free fatty acids (plasma free fatty acids; pinitol 5 mg/kg BID, vs placebo, p=0.05 by paired t-test) [%] | conversion to D-chiro-inositol on acid hydrolysis [6]
1 |  |  |  |  |  |  | O[C@H]1[C@H](O)[C@@H](O)[C@H](O)[C@@H](O)[C@H]1O [myo-Inositol, myo-inositol, reference compound] | 18066 μU/ml × minutes and 4599 μU/ml × minutes and 2253 μU/ml × minutes and 2256 μU/ml × minutes and 1191 μU/ml × minutes | no definite effect | no definite effect |  |  |  |  |  |  |  |  | 
2 | 1.7 | 5400 | three | increased substantially | increased substantially | 488 ± 290 | CO[C@H]1[C@H](O)[C@@H](O)[C@@H](O)[C@H](O)[C@@H]1O [Pinitol, 3-O-methyl-D-chiro-inositol] |  |  |  | 8844 μU/ml × minutes and 4032 μU/ml × minutes and 1518 μU/ml × minutes and 1566 μU/ml × minutes and 1197 μU/ml × minutes | unchanged | 25.2±8.9 | 51.1% and 12.3% and 32.6% and 30.6% and 0.5% | unchanged | 18.8±9.1 | 569 ± 276 | 12.2 | quantitatively converted to D-chiro-inositol
